Assay results published in ChEMBL document CHEMBL4376820, “Homodimeric Tobramycin Adjuvant Repurposes Novobiocin as an Effective Antibacterial Agent against Gram-Negative Bacteria” (J Med Chem, 2019).
Activity calls are given as the source filed them. The rule behind the calls is not given here.

How the values were obtained:
[1] = tested on: Pseudomonas aeruginosa; test: Synergistic antibacterial activity against wild type Pseudomonas aeruginosa PAO1 assessed as potentiation of cefotaxime-induced antibacterial effect incubated for 18 hrs by checkerboard assay; assay type: functional, organism-based
[2] = tested on: Pseudomonas aeruginosa; test: Synergistic antibacterial activity against wild type Pseudomonas aeruginosa PAO1 assessed as potentiation of minocycline-induced antibacterial effect incubated for 18 hrs by checkerboard assay; assay type: functional, organism-based
[3] = tested on: Pseudomonas aeruginosa; test: Synergistic antibacterial activity against wild type Pseudomonas aeruginosa PAO1 assessed as potentiation of meropenem-induced antibacterial effect incubated for 18 hrs by checkerboard assay; assay type: functional, organism-based
[4] = tested on: HEK293; test: Cytotoxicity against human HEK293 cells at 50 uM incubated for 48 hrs by PrestoBlue dye based fluorescence assay; assay type: cell-based; details: hek293, 48 h
[5] = tested on: HepG2; test: Cytotoxicity against human HepG2 cells at 50 uM incubated for 48 hrs by PrestoBlue dye based fluorescence assay; assay type: cell-based; details: hepg2, 48 h
[6] = tested on: Erythrocyte; test: Hemolytic activity against porcine erythrocytes assessed as hemoglobin release at 1024 ug/ml incubated for 1 hr by microplate reader analysis; assay type: ADME, cell-based, Sus scrofa; details: pig
[7] = Toxicity in Galleria mellonella larvae assessed as survivability at 200 mg/kg measured every 6 hrs for 72 hrs; assay type: organism-based; details: in vivo
[8] = tested on: Pseudomonas aeruginosa; test: Synergistic antibacterial activity against wild type Pseudomonas aeruginosa PAO1 assessed as potentiation of rifampicin-induced antibacterial effect incubated for 18 hrs by checkerboard assay; assay type: functional, organism-based
[9] = tested on: Pseudomonas aeruginosa; test: Synergistic antibacterial activity against wild type Pseudomonas aeruginosa PAO1 assessed as potentiation of doxycycline-induced antibacterial effect incubated for 18 hrs by checkerboard assay; assay type: functional, organism-based
[10] = tested on: Pseudomonas aeruginosa; test: Synergistic antibacterial activity against wild type Pseudomonas aeruginosa PAO1 assessed as potentiation of linezolid-induced antibacterial effect incubated for 18 hrs by checkerboard assay; assay type: functional, organism-based
[11] = tested on: Pseudomonas aeruginosa; test: Synergistic antibacterial activity against wild type Pseudomonas aeruginosa PAO1 assessed as potentiation of moxifloxacin-induced antibacterial effect incubated for 18 hrs by checkerboard assay; assay type: functional, organism-based
[12] = tested on: Pseudomonas aeruginosa; test: Synergistic antibacterial activity against wild type Pseudomonas aeruginosa PAO1 assessed as potentiation of ciprofloxacin-induced antibacterial effect incubated for 18 hrs by checkerboard assay; assay type: functional, organism-based
[13] = tested on: Pseudomonas aeruginosa; test: Synergistic antibacterial activity against wild type Pseudomonas aeruginosa PAO1 assessed as potentiation of levofloxacin-induced antibacterial effect incubated for 18 hrs by checkerboard assay; assay type: functional, organism-based
[14] = tested on: Pseudomonas aeruginosa; test: Synergistic antibacterial activity against wild type Pseudomonas aeruginosa PAO1 assessed as potentiation of aztreonam-induced antibacterial effect incubated for 18 hrs by checkerboard assay; assay type: functional, organism-based
[15] = tested on: Pseudomonas aeruginosa; test: Synergistic antibacterial activity against wild type Pseudomonas aeruginosa PAO1 assessed as potentiation of ceftazidime-induced antibacterial effect incubated for 18 hrs by checkerboard assay; assay type: functional, organism-based
[16] = tested on: Pseudomonas aeruginosa; test: Synergistic antibacterial activity against wild type Pseudomonas aeruginosa PAO1 assessed as potentiation of fosfomycin-induced antibacterial effect incubated for 18 hrs by checkerboard assay; assay type: functional, organism-based
[17] = tested on: Pseudomonas aeruginosa; test: Synergistic antibacterial activity against wild type Pseudomonas aeruginosa PAO1 assessed as potentiation of chloramphenicol-induced antibacterial effect incubated for 18 hrs by checkerboard assay; assay type: functional, organism-based
[18] = tested on: Pseudomonas aeruginosa; test: Synergistic antibacterial activity against wild type Pseudomonas aeruginosa PAO1 assessed as potentiation of clindamycin-induced antibacterial effect incubated for 18 hrs by checkerboard assay; assay type: functional, organism-based
[19] = tested on: Pseudomonas aeruginosa; test: Synergistic antibacterial activity against wild type Pseudomonas aeruginosa PAO1 assessed as potentiation of piperacillin-induced antibacterial effect incubated for 18 hrs by checkerboard assay; assay type: functional, organism-based
[20] = tested on: Pseudomonas aeruginosa; test: Synergistic antibacterial activity against wild type Pseudomonas aeruginosa PAO1 assessed as potentiation of novobiocin-induced antibacterial effect incubated for 18 hrs by checkerboard assay; assay type: functional, organism-based
[21] = tested on: Pseudomonas aeruginosa; test: Synergistic antibacterial activity against wild type Pseudomonas aeruginosa PAO1 assessed as potentiation of tobramycin-induced antibacterial effect at <= 7.1 uM incubated for 18 hrs by checkerboard assay; assay type: functional, organism-based
[22] = tested on: Pseudomonas aeruginosa; test: Synergistic antibacterial activity against wild type Pseudomonas aeruginosa PAO1 assessed as potentiation of vancomycin-induced antibacterial effect at <=7.1 uM incubated for 18 hrs by checkerboard assay; assay type: functional, organism-based
[23] = tested on: Pseudomonas aeruginosa; test: Synergistic antibacterial activity against wild type Pseudomonas aeruginosa PAO1 assessed as potentiation of colistin-induced antibacterial effect at <=7.1 uM incubated for 18 hrs by checkerboard assay; assay type: functional, organism-based
[24] = tested on: Pseudomonas aeruginosa; test: Antibacterial activity against wild type Pseudomonas aeruginosa PAO1 assessed as fractional inhibitory concentration index incubated for 18 hrs in presence of tobramycin by checkerboard assay; assay type: functional
[25] = tested on: Pseudomonas aeruginosa; test: Antibacterial activity against wild type Pseudomonas aeruginosa PAO1 assessed as fractional inhibitory concentration index incubated for 18 hrs in presence of colistin by checkerboard assay; assay type: functional
[26] = tested on: Pseudomonas aeruginosa; test: Synergistic antibacterial activity against wild type Pseudomonas aeruginosa PAO1 assessed as potentiation of rifampicin-induced antibacterial effect incubated for 18 hrs by checkerboard assay relative to rifampicin alone; assay type: functional
[27] = tested on: Pseudomonas aeruginosa; test: Synergistic antibacterial activity against wild type Pseudomonas aeruginosa PAO1 assessed as potentiation of minocycline-induced antibacterial effect incubated for 18 hrs by checkerboard assay relative to minocycline alone; assay type: functional
[28] = tested on: Pseudomonas aeruginosa; test: Synergistic antibacterial activity against wild type Pseudomonas aeruginosa PAO1 assessed as potentiation of cefotaxime-induced antibacterial effect incubated for 18 hrs by checkerboard assay relative to cefotaxime alone; assay type: functional
[29] = tested on: Pseudomonas aeruginosa; test: Synergistic antibacterial activity against wild type Pseudomonas aeruginosa PAO1 assessed as potentiation of doxycycline-induced antibacterial effect incubated for 18 hrs by checkerboard assay relative to doxycycline alone; assay type: functional
[30] = tested on: Pseudomonas aeruginosa; test: Synergistic antibacterial activity against wild type Pseudomonas aeruginosa PAO1 assessed as potentiation of linezolid-induced antibacterial effect incubated for 18 hrs by checkerboard assay relative to linezolid alone; assay type: functional
[31] = tested on: Pseudomonas aeruginosa; test: Synergistic antibacterial activity against wild type Pseudomonas aeruginosa PAO1 assessed as potentiation of meropenem-induced antibacterial effect incubated for 18 hrs by checkerboard assay relative to meropenem alone; assay type: functional
[32] = tested on: Pseudomonas aeruginosa; test: Synergistic antibacterial activity against wild type Pseudomonas aeruginosa PAO1 assessed as potentiation of moxifloxacin-induced antibacterial effect incubated for 18 hrs by checkerboard assay relative to moxifloxacin alone; assay type: functional
[33] = tested on: Pseudomonas aeruginosa; test: Synergistic antibacterial activity against wild type Pseudomonas aeruginosa PAO1 assessed as potentiation of ciprofloxacin-induced antibacterial effect incubated for 18 hrs by checkerboard assay relative to ciprofloxacin alone; assay type: functional
[34] = tested on: Pseudomonas aeruginosa; test: Synergistic antibacterial activity against wild type Pseudomonas aeruginosa PAO1 assessed as potentiation of levofloxacin-induced antibacterial effect incubated for 18 hrs by checkerboard assay relative to levofloxacin alone; assay type: functional
[35] = tested on: Pseudomonas aeruginosa; test: Synergistic antibacterial activity against wild type Pseudomonas aeruginosa PAO1 assessed as potentiation of aztreonam-induced antibacterial effect incubated for 18 hrs by checkerboard assay relative to aztreonam alone; assay type: functional
[36] = tested on: Pseudomonas aeruginosa; test: Synergistic antibacterial activity against wild type Pseudomonas aeruginosa PAO1 assessed as potentiation of ceftazidime-induced antibacterial effect incubated for 18 hrs by checkerboard assay relative to ceftazidime alone; assay type: functional
[37] = tested on: Pseudomonas aeruginosa; test: Synergistic antibacterial activity against wild type Pseudomonas aeruginosa PAO1 assessed as potentiation of fosfomycin-induced antibacterial effect incubated for 18 hrs by checkerboard assay relative to fosfomycin alone; assay type: functional
[38] = tested on: Pseudomonas aeruginosa; test: Synergistic antibacterial activity against wild type Pseudomonas aeruginosa PAO1 assessed as potentiation of chloramphenicol-induced antibacterial effect incubated for 18 hrs by checkerboard assay relative to chloramphenicol alone; assay type: functional
[39] = tested on: Pseudomonas aeruginosa; test: Synergistic antibacterial activity against wild type Pseudomonas aeruginosa PAO1 assessed as potentiation of clindamycin-induced antibacterial effect incubated for 18 hrs by checkerboard assay relative to clindamycin alone; assay type: functional
[40] = tested on: Pseudomonas aeruginosa; test: Synergistic antibacterial activity against wild type Pseudomonas aeruginosa PAO1 assessed as potentiation of novobiocin-induced antibacterial effect incubated for 18 hrs by checkerboard assay relative to novobiocin alone; assay type: functional
[41] = tested on: Pseudomonas aeruginosa; test: Synergistic antibacterial activity against wild type Pseudomonas aeruginosa PAO1 assessed as potentiation of piperacillin-induced antibacterial effect incubated for 18 hrs by checkerboard assay relative to piperacillin alone; assay type: functional

SMILES: NC[C@H]1O[C@H](O[C@H]2[C@H](OCCCCCCn3cc(CCCCO[C@@H]4[C@@H](O[C@H]5O[C@H](CO)[C@@H](O)[C@H](N)[C@H]5O)[C@H](N)C[C@H](N)[C@H]4O[C@H]4O[C@H](CN)[C@@H](O)C[C@H]4N)nn3)[C@@H](O[C@H]3O[C@H](CO)[C@@H](O)[C@H](N)[C@H]3O)[C@H](N)C[C@@H]2N)[C@H](N)C[C@@H]1O.O=C(O)C(F)(F)F.O=C(O)C(F)(F)F.O=C(O)C(F)(F)F.O=C(O)C(F)(F)F.O=C(O)C(F)(F)F.O=C(O)C(F)(F)F.O=C(O)C(F)(F)F.O=C(O)C(F)(F)F.O=C(O)C(F)(F)F.O=C(O)C(F)(F)F
- Activity [1]: Dose-dependent effect
- Activity [2]: Dose-dependent effect
- Activity [3]: Dose-dependent effect
- Activity [4]: Non-Toxic
- Activity [5]: Non-Toxic
- Activity [6]: Non-Toxic
- Activity [7]: Non-Toxic
- Activity [8]: Dose-dependent effect
- Activity [9]: Dose-dependent effect
- Activity [10]: Dose-dependent effect
- Activity [11]: Dose-dependent effect
- Activity [12]: Dose-dependent effect
- Activity [13]: Dose-dependent effect
- Activity [14]: Dose-dependent effect
- Activity [15]: Dose-dependent effect
- Activity [16]: Dose-dependent effect
- Activity [17]: Dose-dependent effect
- Activity [18]: Dose-dependent effect
- Activity [19]: Dose-dependent effect
- Activity [20]: Dose-dependent effect
- Activity [21]: inactive
- Activity [22]: inactive
- Activity [23]: inactive
- fractional inhibitory concentration index (FICI) [24]: >4
- fractional inhibitory concentration index (FICI) [25]: >4
- fold change (FC) [26]: 4 - 128
- fold change (FC) [27]: 4 - 128
- fold change (FC) [28]: 4 - 128
- fold change (FC) [29]: 4 - 128
- fold change (FC) [30]: 4 - 128
- fold change (FC) [31]: 4 - 128
- fold change (FC) [32]: 4 - 128
- fold change (FC) [33]: 4 - 128
- fold change (FC) [34]: 4 - 128
- fold change (FC) [35]: 4 - 128
- fold change (FC) [36]: 4 - 128
- fold change (FC) [37]: 4 - 128
- fold change (FC) [38]: 4 - 128
- fold change (FC) [39]: 4 - 128
- fold change (FC) [40]: 4 - 128
- fold change (FC) [41]: 4 - 128
